From ChEMBL document CHEMBL1201862, “PubChem BioAssay data set” (2004)
Calls of active or inactive are those of the source.

Tests used:
[1] = molecular target: Scavenger receptor class B member 1 (Mus musculus, UniProt Q61009); assay: mouse SR-BI DiI-HDL uptake blockers – ldlA[mSR-BI] cells, fluorescence, cherry pick, dose response (AID 493194); format: functional, cell-based;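 also: cellular uptake of fluorescent DiI-labeled HDL measured as cell fluorescence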
Tumor necrosis factor = Tumor necrosis factor (Homo sapiens, UniProt P01375); assay: analog potency on TNFa NF-kB signaling – cell-based, revised, SAR follow-up (AID 2337); format: functional
[2] = molecular target: T1, Nucleotide-binding oligomerization domain-containing protein 1 (Homo sapiens, UniProt Q9Y239); assay: blockers of NOD1 pathway activity – revised, SAR follow-up (AID 2333); format: functional
T1 sequence (Q9Y239 whole entry): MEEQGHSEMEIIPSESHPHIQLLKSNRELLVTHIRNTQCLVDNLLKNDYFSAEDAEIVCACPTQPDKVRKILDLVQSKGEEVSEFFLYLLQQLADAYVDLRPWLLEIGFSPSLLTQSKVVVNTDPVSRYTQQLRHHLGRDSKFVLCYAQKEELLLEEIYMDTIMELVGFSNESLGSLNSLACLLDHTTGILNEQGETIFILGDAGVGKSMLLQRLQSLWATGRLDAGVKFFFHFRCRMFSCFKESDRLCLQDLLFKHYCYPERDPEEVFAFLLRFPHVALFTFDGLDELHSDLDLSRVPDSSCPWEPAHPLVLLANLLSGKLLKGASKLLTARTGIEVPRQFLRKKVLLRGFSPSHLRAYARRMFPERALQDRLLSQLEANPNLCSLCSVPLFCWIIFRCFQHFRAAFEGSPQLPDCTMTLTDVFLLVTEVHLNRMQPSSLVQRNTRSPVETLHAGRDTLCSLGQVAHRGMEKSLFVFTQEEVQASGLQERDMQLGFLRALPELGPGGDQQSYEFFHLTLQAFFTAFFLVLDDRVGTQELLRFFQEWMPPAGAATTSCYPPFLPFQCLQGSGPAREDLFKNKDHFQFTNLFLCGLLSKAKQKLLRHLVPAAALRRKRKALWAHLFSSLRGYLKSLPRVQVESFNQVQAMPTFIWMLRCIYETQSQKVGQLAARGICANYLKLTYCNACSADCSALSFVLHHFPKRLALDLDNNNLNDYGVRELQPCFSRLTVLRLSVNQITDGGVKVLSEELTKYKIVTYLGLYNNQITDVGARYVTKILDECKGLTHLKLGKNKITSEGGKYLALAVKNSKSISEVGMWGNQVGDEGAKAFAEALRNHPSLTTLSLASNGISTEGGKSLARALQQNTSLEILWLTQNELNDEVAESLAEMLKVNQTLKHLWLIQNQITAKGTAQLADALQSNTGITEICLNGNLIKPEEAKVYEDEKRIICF

[3] = molecular target: Nucleotide-binding oligomerization domain-containing protein 2 (Homo sapiens, UniProt Q9HC29); assay: PubChem AID 2334; format: functional
HEK293 [4] = assay: cells; details: Homo sapiens
Large T antigen = Large T antigen (Simian virus 40, UniProt P03070); format: functional, Betapolyomavirus macacae;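 also: Confirmatory-stage PubChem screen for compounds that inhibit SV40 T antigen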
[5] = molecular target: Induced myeloid leukemia cell differentiation protein Mcl-1 (Homo sapiens, UniProt Q07820); format: functional
[6] = molecular target: Intestinal-type alkaline phosphatase (Homo sapiens, UniProt P09923); assay: Dose Response confirmation of uHTS hits from a small molecule inhibitors of human intestinal alkaline phosphatase via a luminescent assay. [Related pubchem assays (depositor defined):AID2544, AID2574]; format: functional
Albumin = Albumin (Bos taurus, UniProt P02769); assay: Counterscreen for inhibitors of T-cell receptor (TCR)-CD3 interaction: Fluorescence-based biochemical high throughput dose response assay to identify inhibitors of T-cell receptor (TCR)-CD3 interaction using a TAMRA-labeled BSA probe.; format: functional
Caspase-6 = Caspase-6 (Homo sapiens, UniProt P55212); assay: inhibition of CASP6 peptide cleavage – biochemical, VEID-R110 fluorescence, cherry-pick, dose response (AID 720632)
Caspase-7 = Caspase-7 (Homo sapiens, UniProt P55210); assay: caspase-7 enzyme inhibition, selectivity check – biochemical, DEVD-R110 fluorescence, cherry-pick, selectivity assay for caspase-6 inhibitor project, dose response (AID 743295); format: functional
Caspase-8 = Caspase-8 (Homo sapiens, UniProt Q14790); assay: inhibitors of purified CASP8 protease – biochemical, Z-IETD-R110 fluorescence, cherry-picked samples, selectivity assay for caspase-6 inhibitor project, dose response (AID 743294)
Caspase-3 = molecular target: T2, Caspase-3 (Homo sapiens, UniProt P42574); assay: human caspase-3 protease activity blockade – biochemical, fluorescence, cherry-picked samples, selectivity assay for caspase-6 allosteric inhibitor project, dose response (AID 743291)
T2 sequence (P42574 whole entry): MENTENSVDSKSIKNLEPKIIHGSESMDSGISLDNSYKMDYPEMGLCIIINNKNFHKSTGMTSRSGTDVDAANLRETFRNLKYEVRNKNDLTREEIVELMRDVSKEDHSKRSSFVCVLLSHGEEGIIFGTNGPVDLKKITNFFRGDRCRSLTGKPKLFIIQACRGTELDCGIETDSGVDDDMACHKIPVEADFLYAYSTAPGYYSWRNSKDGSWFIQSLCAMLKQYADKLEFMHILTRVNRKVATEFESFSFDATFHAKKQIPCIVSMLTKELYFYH

J774.A1 = assay: Confirmation of image-based Screening Assay for Inhibitors of Phagocytosis. [Related pubchem assays (depositor defined):AID1029, AID1643]; format: functional, cell-based; details: Mus musculus
[7] = HEK-293T viability loss after treatment – luminescence, T-cell screen hits, cytotoxicity control for TCR NF-kB inhibitor project, dose response (AID 489026); format: functional, cell-based;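 also: cells exposed to compound about 14 hours before the viability readout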
HEK293 [8] = assay: PMA/Ionomycin induced NF-kB luciferase assay in 293- NF-kB-Luc stable cells. [Related pubchem assays: 1299, 1270, 1295, 1375, 1287, 1281, 1293, 1291, 1289, 1280, 465, 1364, 1282, 1372, 1365, 1370, 1367, 1366, 1269, 1373, 1292, 1290, 1302, 1371, 1283, 1271, 1294, 1374, 1368, 1369 ]; format: functional, cell-based; details: Homo sapiens
[9] = molecular target: Luciferin 4-monooxygenase (Photinus pyralis, UniProt P08659); assay: In vitro luciferase assay using purified luciferase. [Related pubchem assays: 1299, 1270, 1295, 1375, 1287, 1281, 1293, 1291, 1289, 1280, 465, 1364, 1282, 1372, 1365, 1370, 1367, 1366, 1266, 1373, 1292, 1290, 1302, 1371, 1283, 1271, 1294, 1374, 1368, 1369 ]
HEK293 [10] = assay: Cytotoxicity assay in HEK293 cells. [Related pubchem assays (depositor defined):AID1266, AID1269, AID1270, AID1271, AID1280, AID1281, AID1282, AID1283, AID1287, AID1289, AID1290, AID1291, AID1292, AID1293, AID1294, AID1295, AID1299, AID1302, AID1364, AID1365, AID1366, AID1367, AID1369, AID1370, AID1371, AID1372, AID1373, AID1374, AID1375, AID1384 …; format: functional, cell-based; details: Homo sapiens
HEK293 [11] = assay: EBV LMP1 TES2 canonical NF-kB signalling blockers – cell-based, HEK293, luciferase, cherry-pick, dose response (AID 588343); format: functional; details: Homo sapiens
[12] = molecular target: Cystic fibrosis transmembrane conductance regulator/Golgi-associated PDZ and coiled-coil motif-containing protein (Homo sapiens, UniProt P13569+Q9HD26); assay: potency against CAL PDZ-peptide interaction – biochemical, fluorescence polarization, Cerulean-tagged CAL PDZ, cherry-picks, dose response (AID 504773)
Salmon testes DNA = assay: acridine orange-DNA binding displacement – biochemical, fluorescence polarization, cherry-picked samples, set 2, artefact control for KSHV LANA DNA-binding inhibitor project, dose response (AID 504727); parameters: species or system Salmonidae
ORF 73 = ORF 73 (Human herpesvirus 8, UniProt O40947); assay: KSHV LANA DNA-binding disruption – biochemical, fluorescence polarization, cherry-picked samples, dose response (AID 504725); parameters: species or system Human gammaherpesvirus 8;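 also: fluorescence polarization of a labeled DNA duplex reporting LANA DNA binding; potency is for inhibitors that block LANA binding to the DNA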
[13] = rescue of ΔF508 CFTR function, airway epithelium – human bronchial epithelial cells, plate reader, cherry-pick, two tests, dose response (AID 743267); format: functional, cell-based
[14] = test system: Streptococcus sp. 'group A'; assay: Streptococcus pyogenes SK(-)GAS viability under kanamycin – luminescence, BacTiterGlo, confirmation, counter-screen for streptokinase expression inhibitor project, dose response (AID 1900); format: functional, organism-based
Streptokinase A = molecular target: T3, Streptokinase A (Streptococcus pyogenes serotype M1, UniProt P10520); assay: viability-normalized secreted streptokinase activity reduction – plasminogen activation absorbance, OD405, dose response (AID 1914); format: functional, Streptococcus pyogenes M1 GAS;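 also: secreted streptokinase activity via plasminogen activation per viability signal from cell pellet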
T3 sequence (P10520 whole entry): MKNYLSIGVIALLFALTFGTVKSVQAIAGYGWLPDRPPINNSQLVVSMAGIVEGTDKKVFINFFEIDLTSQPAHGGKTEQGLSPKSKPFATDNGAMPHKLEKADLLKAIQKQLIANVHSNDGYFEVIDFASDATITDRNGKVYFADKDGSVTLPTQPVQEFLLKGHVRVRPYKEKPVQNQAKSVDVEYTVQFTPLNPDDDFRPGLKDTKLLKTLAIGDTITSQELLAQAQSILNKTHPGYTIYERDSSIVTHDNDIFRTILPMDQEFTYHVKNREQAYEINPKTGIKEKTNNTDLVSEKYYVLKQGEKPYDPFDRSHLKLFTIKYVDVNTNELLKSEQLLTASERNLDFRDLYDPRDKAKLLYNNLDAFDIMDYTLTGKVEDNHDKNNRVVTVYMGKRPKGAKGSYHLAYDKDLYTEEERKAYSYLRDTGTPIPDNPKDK

Streptococcus = assay: GAS UMAA2166 growth inhibition – luminescence, BacTiterGlo, counter-screen for streptokinase expression inhibitor project, dose response (AID 1915); format: functional, organism-based;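 also: potency for reduction of bacterial viability or growth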
X-box-binding protein 1 = X-box-binding protein 1 (Homo sapiens, UniProt P17861); format: functional, Cricetulus griseus;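 also: confirmatory dose-response counter-screen serving a CHOP assay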
Chain of X-box-binding protein 1 (P17861 whole entry): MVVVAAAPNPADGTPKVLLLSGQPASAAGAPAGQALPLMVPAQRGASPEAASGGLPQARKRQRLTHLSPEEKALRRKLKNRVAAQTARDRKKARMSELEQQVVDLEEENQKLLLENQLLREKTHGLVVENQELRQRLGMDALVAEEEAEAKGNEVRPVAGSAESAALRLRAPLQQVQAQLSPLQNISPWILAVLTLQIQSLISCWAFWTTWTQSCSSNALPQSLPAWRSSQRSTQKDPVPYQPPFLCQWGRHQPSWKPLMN

Chain of Induced myeloid leukemia cell differentiation protein Mcl-1 (Q07820 whole entry): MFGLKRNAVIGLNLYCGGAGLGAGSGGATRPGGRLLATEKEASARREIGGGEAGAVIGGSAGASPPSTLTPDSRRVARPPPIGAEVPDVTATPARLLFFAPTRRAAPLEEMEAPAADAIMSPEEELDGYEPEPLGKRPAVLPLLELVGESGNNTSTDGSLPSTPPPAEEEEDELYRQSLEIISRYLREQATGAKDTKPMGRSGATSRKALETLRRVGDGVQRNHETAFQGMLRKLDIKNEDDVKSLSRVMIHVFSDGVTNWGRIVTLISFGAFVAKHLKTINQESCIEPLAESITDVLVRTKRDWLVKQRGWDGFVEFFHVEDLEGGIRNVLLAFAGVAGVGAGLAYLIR
Chain of Intestinal-type alkaline phosphatase (P09923 whole entry): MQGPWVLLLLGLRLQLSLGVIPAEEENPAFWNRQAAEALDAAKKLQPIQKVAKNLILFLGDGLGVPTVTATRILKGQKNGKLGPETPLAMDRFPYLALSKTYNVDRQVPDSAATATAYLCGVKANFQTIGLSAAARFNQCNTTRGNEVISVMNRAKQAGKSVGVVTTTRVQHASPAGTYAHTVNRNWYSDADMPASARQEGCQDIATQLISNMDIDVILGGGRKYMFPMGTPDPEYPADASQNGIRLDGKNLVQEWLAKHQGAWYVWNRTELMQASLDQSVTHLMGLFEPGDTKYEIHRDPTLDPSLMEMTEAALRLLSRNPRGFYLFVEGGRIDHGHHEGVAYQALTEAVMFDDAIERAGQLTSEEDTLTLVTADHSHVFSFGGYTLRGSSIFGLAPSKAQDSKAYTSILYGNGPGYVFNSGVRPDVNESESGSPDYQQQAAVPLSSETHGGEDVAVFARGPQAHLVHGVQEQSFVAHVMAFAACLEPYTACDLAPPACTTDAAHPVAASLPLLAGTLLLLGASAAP
Chain of Tumor necrosis factor (P01375 whole entry, the tested form may be a part): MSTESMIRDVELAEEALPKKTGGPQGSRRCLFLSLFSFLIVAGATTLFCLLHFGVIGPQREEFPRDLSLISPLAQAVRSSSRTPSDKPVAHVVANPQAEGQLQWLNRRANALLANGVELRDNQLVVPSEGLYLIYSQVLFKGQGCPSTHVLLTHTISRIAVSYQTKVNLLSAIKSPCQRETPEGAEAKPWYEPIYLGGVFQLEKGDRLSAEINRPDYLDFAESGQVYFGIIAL
Chain of Albumin (P02769 whole entry): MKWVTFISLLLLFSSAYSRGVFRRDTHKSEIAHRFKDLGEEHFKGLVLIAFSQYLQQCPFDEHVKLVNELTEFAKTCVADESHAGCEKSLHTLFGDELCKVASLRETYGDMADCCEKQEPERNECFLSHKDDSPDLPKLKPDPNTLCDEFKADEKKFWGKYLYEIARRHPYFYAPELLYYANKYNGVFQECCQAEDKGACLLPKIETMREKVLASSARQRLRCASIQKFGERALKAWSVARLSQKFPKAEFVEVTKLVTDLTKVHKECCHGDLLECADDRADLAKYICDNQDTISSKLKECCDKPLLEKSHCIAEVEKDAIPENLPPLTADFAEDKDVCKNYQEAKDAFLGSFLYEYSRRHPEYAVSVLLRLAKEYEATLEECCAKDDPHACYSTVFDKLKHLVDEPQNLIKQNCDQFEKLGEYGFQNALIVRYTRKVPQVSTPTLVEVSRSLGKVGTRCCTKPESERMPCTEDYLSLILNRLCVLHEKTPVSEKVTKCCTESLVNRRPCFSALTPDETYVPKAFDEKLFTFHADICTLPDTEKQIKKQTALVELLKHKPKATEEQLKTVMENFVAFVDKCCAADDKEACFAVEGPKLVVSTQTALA
Chain of Caspase-6 (P55212 24-179 limits assumed): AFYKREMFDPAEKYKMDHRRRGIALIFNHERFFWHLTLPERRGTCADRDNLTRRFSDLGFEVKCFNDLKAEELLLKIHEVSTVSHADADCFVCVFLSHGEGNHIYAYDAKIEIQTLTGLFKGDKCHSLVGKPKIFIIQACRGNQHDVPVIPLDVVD
Chain of Caspase-6 (P55212 194-293 limits assumed): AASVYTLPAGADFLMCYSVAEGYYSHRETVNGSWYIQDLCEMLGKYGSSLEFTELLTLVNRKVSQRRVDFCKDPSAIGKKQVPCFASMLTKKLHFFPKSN
Chain of Caspase-7 (P55210 24-198 limits assumed): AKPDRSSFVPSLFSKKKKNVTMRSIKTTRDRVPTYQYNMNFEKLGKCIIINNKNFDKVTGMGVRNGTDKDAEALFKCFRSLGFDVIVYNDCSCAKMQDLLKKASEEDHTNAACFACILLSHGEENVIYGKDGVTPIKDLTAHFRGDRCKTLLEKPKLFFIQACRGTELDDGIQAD
Chain of Caspase-7 (P55210 207-303 limits assumed): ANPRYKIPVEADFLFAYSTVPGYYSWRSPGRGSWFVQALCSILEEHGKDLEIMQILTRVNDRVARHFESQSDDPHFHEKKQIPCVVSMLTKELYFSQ
Chain of Scavenger receptor class B member 1 (Q61009 whole entry): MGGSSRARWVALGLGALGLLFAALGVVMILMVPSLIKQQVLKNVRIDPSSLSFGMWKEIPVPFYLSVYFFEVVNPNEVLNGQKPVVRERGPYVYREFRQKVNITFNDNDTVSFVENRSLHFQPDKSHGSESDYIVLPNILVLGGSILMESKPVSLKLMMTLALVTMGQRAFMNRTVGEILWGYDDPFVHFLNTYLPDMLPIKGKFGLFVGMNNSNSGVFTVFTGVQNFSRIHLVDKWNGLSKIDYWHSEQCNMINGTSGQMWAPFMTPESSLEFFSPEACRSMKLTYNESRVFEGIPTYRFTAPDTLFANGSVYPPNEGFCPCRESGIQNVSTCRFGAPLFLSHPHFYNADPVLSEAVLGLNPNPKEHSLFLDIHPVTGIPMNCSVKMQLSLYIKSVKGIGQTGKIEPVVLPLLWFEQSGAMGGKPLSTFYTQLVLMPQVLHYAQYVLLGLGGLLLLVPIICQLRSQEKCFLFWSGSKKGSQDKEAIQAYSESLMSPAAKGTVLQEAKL
Chain of Large T antigen (P03070 whole entry): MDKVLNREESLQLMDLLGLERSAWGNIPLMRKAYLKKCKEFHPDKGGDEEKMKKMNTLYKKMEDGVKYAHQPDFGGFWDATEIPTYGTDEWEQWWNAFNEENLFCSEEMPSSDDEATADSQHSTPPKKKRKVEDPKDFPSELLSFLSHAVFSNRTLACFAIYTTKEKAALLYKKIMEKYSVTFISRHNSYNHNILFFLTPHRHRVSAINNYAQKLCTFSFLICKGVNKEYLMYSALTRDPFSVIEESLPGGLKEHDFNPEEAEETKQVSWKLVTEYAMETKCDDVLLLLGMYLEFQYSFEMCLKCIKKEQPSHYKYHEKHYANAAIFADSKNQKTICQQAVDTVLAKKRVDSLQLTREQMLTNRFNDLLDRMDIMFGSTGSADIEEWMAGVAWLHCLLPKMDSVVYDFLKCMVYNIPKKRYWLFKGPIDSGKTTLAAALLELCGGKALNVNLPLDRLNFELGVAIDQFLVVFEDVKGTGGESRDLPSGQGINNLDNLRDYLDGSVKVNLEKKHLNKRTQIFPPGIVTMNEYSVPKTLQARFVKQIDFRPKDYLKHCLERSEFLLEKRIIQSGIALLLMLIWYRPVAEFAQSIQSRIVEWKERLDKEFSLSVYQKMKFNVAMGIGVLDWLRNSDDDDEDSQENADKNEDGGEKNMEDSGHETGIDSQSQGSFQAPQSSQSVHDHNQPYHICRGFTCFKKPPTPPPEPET
Chain of ORF 73 (O40947 whole entry): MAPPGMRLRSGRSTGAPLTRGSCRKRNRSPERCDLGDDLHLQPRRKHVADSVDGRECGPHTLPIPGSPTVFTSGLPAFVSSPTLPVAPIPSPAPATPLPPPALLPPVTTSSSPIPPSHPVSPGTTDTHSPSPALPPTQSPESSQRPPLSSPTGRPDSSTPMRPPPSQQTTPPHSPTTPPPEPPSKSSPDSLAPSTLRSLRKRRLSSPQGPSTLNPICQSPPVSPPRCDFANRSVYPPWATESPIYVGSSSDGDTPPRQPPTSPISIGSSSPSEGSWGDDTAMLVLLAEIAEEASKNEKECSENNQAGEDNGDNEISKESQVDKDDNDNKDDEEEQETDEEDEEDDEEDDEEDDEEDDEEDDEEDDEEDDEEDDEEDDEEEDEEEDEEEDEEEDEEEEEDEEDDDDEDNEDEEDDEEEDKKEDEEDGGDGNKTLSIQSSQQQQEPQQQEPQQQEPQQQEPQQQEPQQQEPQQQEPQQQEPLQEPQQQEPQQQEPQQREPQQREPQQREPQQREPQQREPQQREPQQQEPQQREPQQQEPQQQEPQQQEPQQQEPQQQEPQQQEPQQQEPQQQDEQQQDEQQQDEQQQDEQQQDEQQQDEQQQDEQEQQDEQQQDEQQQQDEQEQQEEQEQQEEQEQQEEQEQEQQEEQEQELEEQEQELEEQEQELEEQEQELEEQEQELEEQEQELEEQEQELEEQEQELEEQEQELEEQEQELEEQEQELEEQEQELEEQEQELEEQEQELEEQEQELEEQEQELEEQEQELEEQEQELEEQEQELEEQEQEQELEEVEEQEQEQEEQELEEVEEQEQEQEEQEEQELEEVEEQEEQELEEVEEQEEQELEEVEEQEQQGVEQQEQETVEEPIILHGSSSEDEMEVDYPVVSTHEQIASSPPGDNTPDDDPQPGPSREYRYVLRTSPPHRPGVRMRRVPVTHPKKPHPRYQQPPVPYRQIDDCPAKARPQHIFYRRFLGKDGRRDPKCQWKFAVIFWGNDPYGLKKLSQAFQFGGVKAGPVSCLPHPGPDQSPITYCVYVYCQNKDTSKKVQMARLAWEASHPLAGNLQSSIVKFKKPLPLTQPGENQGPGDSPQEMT

CN1CCc2ccc(NC(=O)c3ccc(C(F)(F)F)cc3)cc2C1
AC50 [1]: 90.7 µM (active)

O=C(NC(=S)Nc1sc2c(c1C(=O)O)CCCC2)c1ccccc1
IC50 (Tumor necrosis factor): 15.5 µM (active)
IC50 [2]: 14.4 µM (active)
IC50 [3]: 17.3 µM (active)
IC50 (HEK293 [4]): > 20 µM (inactive)

O=c1oc2ccccc2c2oc3cc(O)c(O)cc3c12
IC50 (Large T antigen): 6.52 µM (active)
IC50 [5]: 6.69 µM (active)
IC50 [6]: 3.52 µM (active)
IC50 (Albumin): > 94.2 µM (inactive)
AC50 (Caspase-6): 4.48 µM (active)
AC50 (Caspase-7): 59.8 µM (active)
AC50 (Caspase-8): > 70 µM (inactive)
AC50 (Caspase-3): 22.1 µM (active)

CCOc1ccc2c(c1)sc(N)[n+]2Cc1cc(C)cc2cccnc12
IC50 (J774.A1): 0.229 µM (active)
IC50 [7]: > 80 µM (inactive)

COc1cc(OC)cc(-c2cc3nc(C)c(CCC(=O)O)c(C)n3n2)c1
EC50 (HEK293 [8]): 4.19 µM (not active)
EC50 [9]: > 8 µM (not active)
EC50 (HEK293 [10]): > 8 µM (inactive)
AC50 (HEK293 [11]): 0.719 µM (active)

c1ccc(C(Nc2cccnc2)c2ccccc2)cc1
AC50 [12]: 33 µM (active)

CN1C(=O)/C(=N\C2CCCCC2)c2c3ccccc3c(O)c3cccc1c23
AC50 (Salmon testes DNA): 101 µM (active)
AC50 (ORF 73): 77.3 µM (active)
AC50 [13]: 8.48 µM (active)

Cc1cccc(NCC(=O)N/N=C\c2cccc(Oc3ccccc3)c2)c1
EC50 [14]: > 150 µM (not active)
EC50 (Streptokinase A): > 150 µM (not active)
EC50 (Streptococcus): > 150 µM (not active)
Absolute IC50 (XBP1) (X-box-binding protein 1): 10 µM
